Laboratory results as given in US7279502B2, “Polyamine analog conjugates and quinone conjugates as therapies for cancers and prostate diseases” (Cellgate, Inc., priority 1999, dated 2007).
pIC50: −log10 of the molar value. Read-outs that look alike come from different tables or passages of the source.

Tests used:
[1] = tested on: human prostate adenocarcinoma cell line PC-3; assay: MTT assay, quinones, PC-3; format: cell-based; conditions: read-out: ID50 PC-3
Description: (§1) Cell Culture: The human lung adenocarcinoma cell line, A549, and human prostatic cancer cell line, DUPRO, were a gift from Dr. M. Eileen Dolan, University of Chicago, Department of Medicine. A549 was grown in Ham's F-12K medium (Fisher Scientific, Itasca, Ill.) supplemented with 10% fetal bovine serum and 2 mM L-glutamine. DUPRO was grown in RPMI-1640 supplemented with 10% fetal bovine serum. The human colon carcinoma cell line, HT29, and the human breast carcinoma cell line, MCF7, were obtained from the American Type Culture Collection, Rockville, Md. HT29 cells were grown in McCoy's 5A medium (Gibco, BRL, Gaithersburg, Md.) supplemented with 10% fetal bovine serum. MCF7 cells were grown in Richter's Improved Modified Eagle's medium supplemented with 10% fetal bovine serum and 2.2 g/L sodium bicarbonate. The human prostate adenocarcinoma cell lines, LNCAP, PC-3 and DU145, were gifts from Dr. George Wilding, University of Wisconsin Comprehensive Cancer Center and the Department of Medicine, and were grown in Dulbecco's Modified Eagle's medium supplemented with a 5% fetal bovine serum. The malignant glioma cell line, U251MG NCI was obtained from the brain tumor tissue bank at the University of California, San Francisco Department of Neurosurgery, and was grown in Dulbecco's Modified Eagle's medium supplemented wth 10% fetal bovine serum. DUPRO, A549 and MCF7 cells were grown in 100 units/mL penicillin and 100 μg/mL streptomycin. HT29 and U251MG NCI cells were grown in 50 μg/mL gentamycin. LNCAP, PC-3 and DU145 cells were maintained in 1% antibiotic antimycotic solution (Sigma, St. Louis, Mo.). All cell cultures were maintained at 37° C. in 5% CO2/95% humidified air.
(§2) MTT assay. Exponentially growing monolayer cells were plated in 96 well plates at a density of 500 cells/well and allowed to grow for 24 h. Serially diluted drug solutions were added such that the final drug concentrations in the treatment media were between 0 and 35 μM. Cells were incubated with drug at either 4 hr or 72 hr. After 4 hr and 72 hr treatment, drugs were removed, fresh media (without) drug (100 uL) was added and cells were incubated for 6 days. After six days, 25 μL of a Dulbecco's phosphate-buffered saline solution containing 5 mg/mL of MTT (Thiazolyl blue) (Sigma) was added to each well and incubated for 4 h at 37° C. Then 100 μL of lysis buffer (20% sodium dodecyl sulfate, 50% N,N-dimethylformamide and 0.8% acetic acid, pH 4.7) was added to each well and incubated for an additional 22 h. A microplate reader (E max, Molecular Devices, Sunnyvale, Calif.) set at 570 nm was used to determine the optical density. Results were plotted as a ratio of the optical density in drug treated wells to the optical density in wells treated with vehicle alone. Plotting and estimation of ID50 values were accomplished with manufacturer supplied software. The data is presented below in Tables 3, 4, 5 and 6.

[2] = tested on: human breast carcinoma cell line, MCF7; assay: MTT assay, quinones, MCF7; format: cell-based; conditions: Table 4, treatment time not given in cell, read-out: ID50 Breast MCF7
Description: as §1, §2

[3] = Table 3, treatment time not given in cell

pIC50 [1, 3] | pIC50 [2] | SMILES | pIC50 ([1]; Table 5, non-quinone structure)
5.37 |  | O=C1C=C(OCCCCCNc2c3ccccc3nc3ccccc23)c2ccccc2C1=O [SL-11059, Acridine-quinone] | 
5.77 |  | N#Cc1ccc(OCCCCCCOC2=CC(=O)C(=O)c3ccccc32)cc1 [SL-11062] | 
 |  | CN1CCN(c2ccc3nc(-c4ccc5nc(-c6ccc(O)cc6)[nH]c5c4)[nH]c3c2)CC1 [SL-11063] | < 4.51
5.85 |  | O=C1C=C(OCCCCCCOC2=CC(=O)c3ccccc3C2=O)c2ccccc2C1=O [SL-11065] | 
< 4.51 |  | O=C1C=C(OCCCCCCOc2ccc(OC3OC(CO)C(O)C(O)C3O)cc2)c2ccccc2C1=O (stereo not shown) [SL-11066] | 
5.82 |  | O=C1C=C(OCCCCCCOc2ccccc2)c2ccccc2C1=O [SL-11068] | 
5.34 |  | CN(C)c1cccc(OC(=O)CCCCOC2=CC(=O)C(=O)c3ccccc32)c1 [SL-11074] | 
5.70 |  | NCCCCCC(=O)OCCCCCCOC1=CC(=O)C(=O)c2ccccc21 [SL-11075] | 
< 4.51 |  | CCNC(=O)CCNC(=O)CCCNC(=O)CCNC(=O)CCCCOC1=CC(=O)C(=O)c2ccccc21 [SL-11085] | 
5.62 | 5.40 | CCCCN(CC1=CC(=O)C(=O)c2ccccc21)C(C)=O [SL-11087] | 
< 4.51 | < 4.51 | CCCCN(CC1=CC(=O)C(=O)c2ccccc21)C(=O)C(F)(F)F [SL-11088] | 
